The test system of series [1] is dopamine release in the striatum. To be noted: imaging studies in nonhuman primates; Hashimoto et al., 2017; cited from earlier work.
Another series deals with DEX-treated mice. The experiment in a line: Tail suspension test (TST), neonatal dexamethasone exposure model of depression. Type of series: in vivo. The conditions noted are these: juvenile DEX-treated mice, 10 mg/kg i.p. single injection. The method, then:
A new animal model of depression was prepared by exposing mice neonatally to dexamethasone (hereinafter abbreviated as DEX). […] The mouse model was prepared and reported only recently by the inventors of the present application and their collaborators (Non Patent Literature 18). […] Further, alterations were found in levels of amino acids (glutamate, glutamine, glycine, D-serine, and L-serine) in mouse brains after the neonatal DEX exposure (Non Patent Literature 18). Those amino acids are known to be associated with NMDA receptor mediated neurotransmission. Thus, it is conceivable that alterations in glutamatergic transmission via the NMDA receptor after the neonatal DEX exposure may be involved in the depression-like behavior in the juvenile mice and the adult mice (Non Patent Literature 18).
The preparation of the animal model of depression and the administration of the agent were specifically performed as described below (FIG. 2A). Male and female ICR mice (9-week-old, Japan SLC, Inc., Hamamatsu, Japan) were used. The mice were given free access to water and feed. A breeding procedure consisted of housing three to four females with one male, for 14 days. On the final day of this period, the females were placed in isolation and checked daily around the expected delivery day. The day of birth was defined as day 0. The mice were injected intraperitoneally with DEX (Wako Pure Chemical Industries, Ltd., Tokyo, Japan) dissolved in saline on day 1, day 2, and day 3 at doses of 0.5 mg/kg body weight, 0.3 mg/kg body weight, and 0.1 mg/kg body weight, respectively. In addition, normal controls were injected with equal volumes (10 ml/kg) of saline.
The antidepressant effects of the agent were investigated for juvenile mice by behavioral tests such as the TST, the PST, the LMT, and a 1% sucrose preference test (SPT) (FIG. 2A). The TST and the PST were performed twice, i.e., the day (27 hours and 29 hours, respectively) and 7 days after the injection of ketamine, and the LMT and the SPT were performed on the day and 2 days after the injection of ketamine. The TST was performed as described below. First, the mice were taken out from cages, and then a small piece of an adhesive tape was bonded onto a portion approximately 2 cm away from the tip of the tail of the mice. […] The immobility time of each mouse was recorded for 10 minutes. […] The immobility time was calculated as a value obtained by subtracting active time from total time, using the analysis software of the apparatus. Cumulative immobility time was recorded over 6 minutes during a test period. […] The locomotor activity of the mice was counted with SCANET MV-40, and the cumulative exercise of the mice was recorded for 60 minutes. […]

Another series concerns Morphine Seizures. To be noted: Not blocked by naloxone; Kolesnikov et al., 1997; cited from earlier work.
For series [2], the system named is Control C57/B6 mice. The experiment in a line: Conditioned place preference test (dependence test) in control mice. To be noted: control mice, 5, 10 or 20 mg/kg, injected on day 4, 6 and 8, test on day 11.
Protocol: 15-minute habituation was performed for 3 days. Then, 30-minute conditioning was performed on day 4 to day 10, and a behavioral evaluation test was performed on day 11. Saline was injected on day 5, day 7, and day 9. […] In each of the groups, the injection was performed three times, i.e., on day 4, day 6, and day 8. Saline means a group injected with saline.
The administration of an agent was performed by the same methods as the methods described in Example 2.
The place preference test was performed using a conditioned place preference test apparatus (BrainScienceIdea Co., Ltd., Osaka, Japan). The analysis of the results of the place preference test was performed by one-way analysis of variance (one-way ANOVA), followed by a least significant difference test (LSD test). Data are presented as the mean plus minus standard error of the mean (n=9 or 10 mice/group). *p<0.05 and **p<0.01 indicate significant differences as compared to a group injected with saline.
Series [3] deals with Control C57/B6 mice. The experiment in a line: Locomotion-enhancing effect in control mice. Format: in vivo. The method, then:
An effect of ketamine on the locomotion of mice was tested using SCANET MV-40 ([…] Co., Ltd., Toyama, Japan). Specifically, the locomotion was measured for a total of 180 minutes, i.e., 60 minutes before injection to 120 minutes after injection, and calculated as a locomotion per 10 minutes. The statistical analysis of the results of the locomotion was performed by repeated one-way analysis of variance (repeated one-way ANOV A), followed by a least significant difference test (LSD test).

In the case of `CN[C@]1(c2ccccc2Cl)CCCCC1=O` [S(+)-ketamine], the “dopamine release in the striatum” value in series [1] is reported as “increases dopamine release in the striatum”. Moreover, the “immobility time in the TST” value in the series with DEX-treated mice (27 hours after injection) was “markedly reduced the immobility time”; with DEX-treated mice (7 days after injection), “did not reduce the immobility time”. In the series on Morphine Seizures, the “Morphine Seizures, dose” value is given as 0.03 mg/kg. Also, the “CPP score (conditioned place preference test)” value in the series on Control C57/B6 mice [2] is reported as “increased the CPP score in a dose-dependent manner”. In the series on Control C57/B6 mice [3] (control mice, 10 mg/kg or 20 mg/kg), the “time after injection at which locomotion returned to a normal value” came to 30 min. In addition, the locomotion after injection result with Control C57/B6 mice [3] (control mice, 10 mg/kg or 20 mg/kg, 10 minutes and 20 minutes after injection, vs saline) was “significant increase in locomotion”.
For `CN[C@@]1(c2ccccc2Cl)CCCCC1=O.Cl` [R(−)-ketamine], the “dopamine release in the striatum” value in series [1] is recorded as “not”. Besides, the “immobility time in the TST” value with DEX-treated mice (27 hours after injection) was “markedly reduced the immobility time”; in the series with DEX-treated mice (7 days after injection) it was “significantly reduced the immobility time”. Further, the “Morphine Seizures, dose” value with Morphine Seizures was 0.3 mg/kg. Further, in the series on Control C57/B6 mice [2], the “CPP score (conditioned place preference test)” value is listed as “did not increase the CPP score”. In addition, the locomotion after injection result in the series with Control C57/B6 mice [3] (control mice, 5, 10 or 20 mg/kg) was “did not affect the locomotion”.
